Test results from EPA's ToxRefDB 2.

Assays:
mouse [1] = settings: Subchronic oral toxicity in rodents, b6c3f1, Gavage/Intubation, dose end: 14 week, group: systemic
rat [2] = settings: Subchronic oral toxicity in rodents, fischer, Gavage/Intubation, dose end: 14 week, group: systemic
rat [3] = settings: Carcinogenicity, fischer, Oral, Gavage/Intubation, dose end: 104 week, group: systemic
mouse [4] = settings: Carcinogenicity, b6c3f1, Oral, Gavage/Intubation, dose end: 105 week, group: systemic
mouse [5] = settings: Carcinogenicity, cd1, Oral, Feed, dose end: 18 month, group: systemic
rat [6] = settings: Prenatal developmental toxicity study, sprague dawley, Oral, Gavage/Intubation, dose end: 15 GD
rat [7] = settings: Prenatal developmental toxicity study, sprague dawley, Oral, Gavage/Intubation, dose end: 15 GD; remark: listed apart in the source
mouse [8] = settings: Subchronic oral toxicity in rodents, b6c3f1, Feed, dose end: 90 day, group: systemic
dog [9] = settings: Subchronic oral toxicity in nonrodent, beagle, Feed, dose end: 13 week, group: systemic
rabbit = settings: Prenatal developmental toxicity study, new zealand white, Oral, Gavage/Intubation, dose end: 19 GD
rat [10] = settings: Developmental neurotoxicity study; wistar; Oral; Gavage/Intubation; dose end: 90 PND; group: cannot be grouped; systemic / in life observation / clinical signs / poor maternal care + systemic / in life observation / clinical signs / grip strength + …
rat [11] = settings: Subchronic oral toxicity in rodents, fischer, Feed, dose end: 90 day, group: systemic, systemic / hematology / hematocrit (hct) / hematocrit (hct) + systemic / hematology / hemoglobin (hgb) / hemoglobin (hgb) + systemic / …
dog [12] = settings: Chronic toxicity, beagle, Oral, Feed, dose end: 52 week, group: systemic
rat [13] = settings: Prenatal developmental toxicity study, sprague dawley, Oral, Gavage/Intubation, dose end: 15 GD; remark: listed apart in the source
[14] = systemic / organ weight / liver / absolute
[15] = systemic / organ weight / liver / absolute + systemic / organ weight / liver / relative to body weight
[16] = systemic / organ weight / kidney / relative to body weight
[17] = systemic / organ weight / kidney / relative to body weight + systemic / clinical chemistry / alanine aminotransferase (alt/sgpt) / alanine …
[18] = systemic / pathology microscopic / liver / basophilic focus + systemic / pathology microscopic / liver / fatty change + systemic / pathology…
[19] = systemic / pathology microscopic / kidney / glomerulonephropathy + systemic / pathology microscopic / liver / [other] + systemic / pathology…
[20] = systemic / pathology microscopic / liver / clear cell focus + systemic / pathology microscopic / nose / degeneration + systemic / pathology …
[21] = systemic / pathology microscopic / adrenal gland / amyloid deposition + systemic / pathology microscopic / kidney / amyloid deposition + …
[22] = group: developmental, systemic / in life observation / body weight / fetal weight
[23] = group: maternal, reproductive / reproductive performance / postimplantation loss / postimplantation loss + reproductive / reproductive performance / …
[24] = group: developmental, developmental / developmental malformation / bone / ossification sites + systemic / in life observation / body weight / fetal weight
[25] = group: developmental, developmental / developmental malformation / bone / ossification sites + systemic / in life observation / body weight / fetal weight + …
[26] = group: maternal, systemic / organ weight / spleen / relative to brain weight + systemic / pathology microscopic / spleen / hematopoietic cell proliferation
[27] = group: maternal, systemic / organ weight / spleen / relative to brain weight + systemic / pathology microscopic / spleen / hematopoietic cell proliferation…
[28] = systemic / hematology / erythrocyte (rbc) count differential / erythrocyte (rbc) + systemic / hematology / hematocrit (hct) / hematocrit (…
[29] = systemic / clinical chemistry / alkaline phosphatase (alp/alk) / alkaline phosphatase (alp/alk) + systemic / hematology / hematocrit (hct…
[30] = group: developmental, systemic / in life observation / body weight / fetal weight + developmental / developmental malformation / bone / fused + developmental / …
[31] = group: maternal, reproductive / reproductive performance / aborted / aborted + reproductive / reproductive performance / resorptions / resorptions + systemic…
[32] = systemic / hematology / microcytosis / microcytosis + systemic / clinical chemistry / albumin / albumin + systemic / clinical chemistry / …
[33] = group: developmental, developmental / developmental malformation / bone / incomplete ossification + developmental / developmental malformation / bone / …

With `CC(C)=C1CC[C@@H](C)CC1=O` [R-(+)-Pulegone] the LEL (mouse [1]; [14]) was 18.8 mg/kg/day, the LOAEL (mouse [1]; [15]) was over 150 mg/kg/day and the NEL (mouse [1]; [15]) was 9.38 mg/kg/day. It also gave an NOAEL (mouse [1]; [15]) of at least 150 mg/kg/day, an LEL (rat [2]; [16]) of 9.38 mg/kg/day and an NEL (rat [2]; [16]) of under 9.38 mg/kg/day. The LOAEL (rat [2]; [17]) was over 150 mg/kg/day, the NOAEL (rat [2]; [17]) was at least 150 mg/kg/day and the LOAEL (rat [3]; systemic / pathology microscopic / kidney / glomerulonephropathy + systemic / pathology microscopic / liver / basophilic focus + systemic / …) was 37.5 mg/kg/day. The LEL (rat [3]; [18]) was 18.8 mg/kg/day, the NEL (rat [3]; [18]) was under 18.8 mg/kg/day and the LOAEL (mouse [4]; [19]) was 75 mg/kg/day. It also gave an NOAEL (mouse [4]; [19]) of 37.5 mg/kg/day, an LEL (mouse [4]; [20]) of 37.5 mg/kg/day and an NEL (mouse [4]; [20]) of under 37.5 mg/kg/day.

For `Cc1nn(-c2cc(NS(C)(=O)=O)c(Cl)cc2Cl)c(=O)n1C(F)F` [Sulfentrazone], the LOAEL (mouse [5]; systemic / hematology / hematocrit (hct) / hematocrit (hct) + systemic / hematology / hemoglobin (hgb) / hemoglobin (hgb)) was 160 mg/kg/day, the NOAEL (mouse [5]; systemic / hematology / hematocrit (hct) / hematocrit (hct) + systemic / hematology / hemoglobin (hgb) / hemoglobin (hgb) + systemic / …) was 93.9 mg/kg/day and the LEL (mouse [5]; [21]) was 46.6 mg/kg/day. For the same molecule, the NEL (mouse [5]; [21]) was under 46.6 mg/kg/day, the LEL (rat [6]; [22]) was 50 mg/kg/day and the LOAEL (rat [6]; [22]) was over 50 mg/kg/day. The NEL (rat [6]; [22]) was 25 mg/kg/day, the NOAEL (rat [6]; [22]) was at least 50 mg/kg/day and the LEL (rat [6]; [23]) was 50 mg/kg/day. For the same molecule, the LOAEL (rat [6]; [23]) was over 50 mg/kg/day, the NEL (rat [6]; [23]) was 25 mg/kg/day and the NOAEL (rat [6]; [23]) was at least 50 mg/kg/day. The LEL (rat [7]; [24]) was 25 mg/kg/day, the LOAEL (rat [7]; [24]) was 25 mg/kg/day and the NEL (rat [7]; [25]) was 10 mg/kg/day. It also gave an NOAEL (rat [7]; [25]) of 10 mg/kg/day, an LOAEL (rat [7]; [26]) of 50 mg/kg/day and an LEL (rat [7]; [27]) of 50 mg/kg/day. It also gave an NEL (rat [7]; [27]) of 25 mg/kg/day, an NOAEL (rat [7]; [27]) of 25 mg/kg/day and an LOAEL (mouse [8]; [28]) of 108 mg/kg/day. It also gave an NEL (mouse [8]; [28]) of 17.8 mg/kg/day, an NOAEL (mouse [8]; [28]) of 60 mg/kg/day and an LEL (mouse [8]; systemic / hematology / hematocrit (hct) / hematocrit (hct)) of 60 mg/kg/day. It also gave an LOAEL (dog [9]; [29]) of 57 mg/kg/day, an NEL (dog [9]; [29]) of 10 mg/kg/day and an NOAEL (dog [9]; [29]) of 28 mg/kg/day. The LEL (dog [9]; [14]) was 28 mg/kg/day, the LOAEL (rabbit; [22]) was 375 mg/kg/day and the LEL (rabbit; group: developmental, systemic / in life observation / body weight / fetal weight + developmental / developmental malformation / bone / fused) was 250 mg/kg/day. For the same molecule, the NEL (rabbit; [30]) was 100 mg/kg/day, the NOAEL (rabbit; [30]) was 250 mg/kg/day and the LOAEL (rabbit; [31]) was 375 mg/kg/day. The NEL (rabbit; [31]) was 100 mg/kg/day, the NOAEL (rabbit; [31]) was 250 mg/kg/day and the LEL (rabbit; group: maternal, reproductive / reproductive performance / resorptions / resorptions + systemic / in life observation / body weight / body weight gain + …) was 250 mg/kg/day. For the same molecule, the LEL (rat [10]) was 25 mg/kg/day, the LOAEL (rat [10]) was over 50 mg/kg/day and the NEL (rat [10]) was under 25 mg/kg/day. For the same molecule, the NOAEL (rat [10]) was at least 50 mg/kg/day, the LOAEL (rat [11]) was 65.8 mg/kg/day and the NOAEL (rat [11]) was 19.9 mg/kg/day. For the same molecule, the LOAEL (dog [12]; systemic / hematology / microcytosis / microcytosis) was 61.2 mg/kg/day, the NEL (dog [12]; [32]) was 9.9 mg/kg/day and the NOAEL (dog [12]; [32]) was 24.9 mg/kg/day. For the same molecule, the LEL (dog [12]; systemic / pathology microscopic / gallbladder / pigmentation) was 24.9 mg/kg/day, the LEL (rat [13]; [33]) was 25 mg/kg/day and the LOAEL (rat [13]; [33]) was 25 mg/kg/day. The NEL (rat [13]; [33]) was 10 mg/kg/day, the NOAEL (rat [13]; [33]) was 10 mg/kg/day and the LOAEL (rat [13]; [26]) was 50 mg/kg/day. For the same molecule, the LEL (rat [13]; [27]) was 50 mg/kg/day, the NEL (rat [13]; [27]) was 25 mg/kg/day and the NOAEL (rat [13]; [27]) was 25 mg/kg/day.
